In patent publication US10954232B2, “Pyrazole derivative as ALK5 inhibitor and uses thereof” (HANMI PHARMACEUTICAL CO., LTD., priority 2016, dated 2021):

Molecular target: T1, ALK5 kinase (Homo sapiens, UniProt P36897)
T1 construct: GST; purchased Thermo Fisher Scientific Solutions
T1 sequence (P36897 34-503): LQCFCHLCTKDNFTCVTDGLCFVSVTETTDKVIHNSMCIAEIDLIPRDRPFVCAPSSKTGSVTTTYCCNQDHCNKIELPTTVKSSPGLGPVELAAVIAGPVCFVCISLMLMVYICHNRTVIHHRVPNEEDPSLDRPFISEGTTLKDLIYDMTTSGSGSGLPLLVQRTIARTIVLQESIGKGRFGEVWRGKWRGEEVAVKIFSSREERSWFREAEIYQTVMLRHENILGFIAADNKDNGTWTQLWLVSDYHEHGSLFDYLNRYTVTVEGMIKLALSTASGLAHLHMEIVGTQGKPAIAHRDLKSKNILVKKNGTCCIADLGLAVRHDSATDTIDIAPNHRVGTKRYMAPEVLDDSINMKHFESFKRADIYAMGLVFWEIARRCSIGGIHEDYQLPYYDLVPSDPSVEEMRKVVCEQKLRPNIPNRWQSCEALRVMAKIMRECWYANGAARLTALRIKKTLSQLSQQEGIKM
Experiment: Activity inhibition test on ALK5 enzyme (LanthaScreen Eu binding kinase assay)
Conditions: kinase tracer 178, 60 minutes at room temperature
Protocol: For each of the compounds obtained in Examples 1 to 227, inhibitory activity against ALK5 kinase was measured.
For this, a LanthaScreen Eu binding kinase assay method was used, and ALK5 kinase, a kinase buffer, a kinase tracer 178, and a LanthaScreen Eu-GST binding antibody were all purchased from Thermo Fisher Scientific Solutions. Each of the compounds was made into a 10 mM DMSO solution, and diluted by 1/10 to a concentration of 1 μM to 0.0001 μM with an aqueous solution containing 4% DMSO. The test was performed in 384 well plates (well polystyrene low volume round-bottomed plates). First, 5 μL of the diluted compound solution was added, then 5 μL of the kinase/antibody mixture solution was introduced thereto, and 5 μL of the tracer was introduced thereto. Herein, these were added to each well so that the final kinase concentration became 5 nM, the final Eu-GST binding antibody concentration 2 nM, and the kinase tracer 178 concentration 10 nM, and the result was reacted in a stirrer for 60 minutes at room temperature. Then a fluorescence value was measured using a fluorescence meter (molecular device) ([…], 665 nm emission filter). Herein, as for the degree of compound activity to inhibit the kinase reaction, a phosphorylate rate was calculated from 0% to 100% with respect to a control group according to the protocol included in the kit, and a 50% inhibitory concentration (IC50) value was calculated by obtaining the x-axis concentration in the region where 50% activity was inhibited.

Row | IC50 | SMILES
1 | 7.7 nM | Cc1cccc(-n2nc(C(=O)Nc3ccc(S(C)(=N)=O)cc3)cc2-c2ccc3ncnn3c2)n1 (stereo not drawn) [Example 149, 5-([1,2,4]triazolo[1,5-α]pyridin-6-yl)-N-(4-(S-methylsulfonimidoyl)phenyl)-1-(6-methylpyridin-2-yl)-1H-pyrazole-3-carboxyamide]
2 | 91 nM | COc1ccc(NC(=O)c2cc(-c3ccnc4ccccc34)n(-c3cccc(C)n3)n2)cc1F [Example 215, N-(3-fluoro-4-methoxyphenyl)-1-(6-methylpyridin-2-yl)-5-(quinolin-4-yl)-1H-pyrazole-3-carboxyamide]
3 | 6 nM | Cc1cccc(-n2nc(C(=O)Nc3ccc([S+](C)[O-])cc3)cc2-c2ccc3ncnn3c2)n1 (stereo not drawn) [Example 146, 5-([1,2,4]triazolo[1,5-α]pyridin-6-yl)-N-(4-(methylsulfinyl)phenyl)-1-(6-methylpyridin-2-yl)-1H-pyrazole-3-carboxyamide]
4 | ~100 nM | Cc1cccc(-n2nc(C(=O)Nc3cccc(C(F)(F)F)c3)cc2-c2ccc3nccnc3c2)n1 [Example 181, 1-(6-methylpyridin-2-yl)-5-(quinoxalin-6-yl)-N-(3-(trifluoromethyl)phenyl)-1H-pyrazole-3-carboxyamide]
5 | 10 to 100 nM | Cc1cccc(-n2nc(C(=O)Nc3ccc(F)cc3Br)cc2-c2ccc3ncnn3c2)n1 [Example 142, 5-([1,2,4]triazolo[1,5-α]pyridin-6-yl)-N-(2-bromo-4-fluorophenyl)-1-(6-methylpyridin-2-yl)-1H-pyrazole-3-carboxyamide]
6 | 4.3 nM | Cc1cccc(-n2nc(C(=O)NC3CC3)cc2-c2ccc(F)c(-c3cnn(CCO)c3)c2)n1 [Example 221, N-cyclopropyl-5-(4-fluoro-3-(1-(2-hydroxyethyl)-1H-pyrazol-4-yl)phenyl)-1-(6-methylpyridin-2-yl)-1H-pyrazole-3-carboxyamide]
7 | < 100 nM | Cc1cccc(-n2nc(C(=O)Nc3cccc(C#N)c3)cc2-c2ccc3nccnc3c2)n1 [Example 175, N-(3-cyanophenyl)-1-(6-methylpyridin-2-yl)-5-(quinoxalin-6-yl)-1H-pyrazole-3-carboxyamide]
8 | 10 to 100 nM | Cc1cccc(-n2nc(C(=O)NCc3ccc(N(C)C)cc3)cc2-c2ccc3ncnn3c2)n1 [Example 160, 5-([1,2,4]triazolo[1,5-α]pyridin-6-yl)-N-(4-(dimethylamino)benzyl)-1-(6-methylpyridin-2-yl)-1H-pyrazole-3-carboxyamide]
9 | 25 nM | Cc1cccc(-n2nc(C(=O)Nc3ccc(Cl)nc3)cc2-c2ccc3ncnn3c2)n1 [Example 153, 5-([1,2,4]triazolo[1,5-α]pyridin-6-yl)-N-(6-chloropyridin-3-yl)-1-(6-methylpyridin-2-yl)-1H-pyrazole-3-carboxyamide]
10 | 10 to 100 nM | CC(=O)N1CCN(c2ccc(NC(=O)c3cc(-c4ccc5nccnc5c4)n(-c4cccc(C)n4)n3)cc2)CC1 [Example 173, N-(4-(4-acetylpiperazin-1-yl)phenyl)-1-(6-methylpyridin-2-yl)-5-(quinoxalin-6-yl)-1H-pyrazole-3-carboxyamide]
11 | 10 to 100 nM | Cc1cccc(-n2nc(C(=O)NCc3cccc(Cl)c3)cc2-c2ccc3nccnc3c2)n1 [Example 200, N-(3-chlorobenzyl)-1-(6-methylpyridin-2-yl)-5-(quinoxalin-6-yl)-1H-pyrazole-3-carboxyamide]
12 | 31 nM | Cc1cccc(-n2nc(C(=O)Nc3ccccc3F)cc2-c2ccc3ncnn3c2)n1 [Example 124, 5-([1,2,4]triazolo[1,5-α]pyridin-6-yl)-N-(2-fluorophenyl)-1-(6-methylpyridin-2-yl)-1H-pyrazole-3-carboxyamide]
13 | 10 to 100 nM | CC(=O)c1cccc(CNC(=O)c2cc(-c3ccc4nccnc4c3)n(-c3cccc(C)n3)n2)c1 [Example 195, N-(3-acetylbenzyl)-1-(6-methylpyridin-2-yl)-5-(quinoxalin-6-yl)-1H-pyrazole-3-carboxyamide]
14 | 10 to 100 nM | Cc1cccc(-n2nc(C(=O)NCc3ccccc3Cl)cc2-c2ccc3nccnc3c2)n1 [Example 201, N-(2-chlorobenzyl)-1-(6-methylpyridin-2-yl)-5-(quinoxalin-6-yl)-1H-pyrazole-3-carboxyamide]
15 | > 100 nM | CN(C)c1ccc(NC(=O)c2cc(-c3ccc4nccnc4c3)n(-c3cccc(C(F)(F)F)n3)n2)cc1 [Example 206]
16 | 4.8 nM | CCCS(=O)(=O)c1ccc(NC(=O)c2cc(-c3ccc4ncnn4c3)n(-c3cccc(C)n3)n2)cc1 [Example 150, 5-([1,2,4]triazolo[1,5-α]pyridin-6-yl)-N-(4-(propylsulfonyl)phenyl)-1-(6-methylpyridin-2-yl)-1H-pyrazole-3-carboxyamide]
17 | 23 nM | Cc1cccc(-n2nc(C(=O)Nc3ccc(Cl)nc3)cc2-c2ccnc3ccccc23)n1 [Example 213, N-(6-chloropyridin-3-yl)-1-(6-methylpyridin-2-yl)-5-(quinolin-4-yl)-1H-pyrazole-3-carboxyamide]

Continued, compound first:

Row | SMILES | IC50
18 | Cc1cccc(-n2nc(C(=O)Nc3ccccc3F)cc2-c2ccc3ncsc3c2)n1 [Example 27, 5-(benzo[d]thiazol-6-yl)-N-(2-fluorophenyl)-1-(6-methylpyridin-2-yl)-1H-pyrazole-3-carboxyamide] | 6.2 nM
19 | COc1ccccc1NC(=O)c1cc(-c2ccc3ncnn3c2)n(-c2cccc(C)n2)n1 [Example 90, 5-([1,2,4]triazolo[1,5-α]pyridin-6-yl)-N-(2-methoxyphenyl)-1-(6-methylpyridin-2-yl)-1H-pyrazole-3-carboxyamide] | 5 nM
20 | Cc1cccc(-n2nc(C(=O)Nc3ccc(O)cc3)cc2-c2ccc3ncsc3c2)n1 [Example 83, 5-(benzo[d]thiazol-6-yl)-N-(4-hydroxyphenyl)-1-(6-methylpyridin-2-yl)-1H-pyrazole-3-carboxyamide] | 0.7 nM
21 | COc1ccc(NC(=O)c2cc(-c3ccc4ncnn4c3)n(-c3cccc(C)n3)n2)cc1F [Example 98, 5-([1,2,4]triazolo[1,5-α]pyridin-6-yl)-N-(3-fluoro-4-methoxyphenyl)-1-(6-methylpyridin-2-yl)-1H-pyrazole-3-carboxyamide] | 5.3 nM
22 | Cc1cccc(-n2nc(C(=O)NCc3ccc(F)cc3)cc2-c2ccc3ncsc3c2)n1 [Example 79, 5-(benzo[d]thiazol-6-yl)-N-(4-fluorobenzyl)-1-(6-methylpyridin-2-yl)-1H-pyrazole-3-carboxyamide] | 5.6 nM
23 | Cc1cccc(-n2nc(C(=O)Nc3cccc(S(=O)(=O)N(C)C)c3)cc2-c2ccc3ncsc3c2)n1 [Example 51, 5-(benzo[d]thiazol-6-yl)-N-(3-(N,N-dimethylsulfamoyl)phenyl)-1-(6-methylpyridin-2-yl)-1H-pyrazole-3-carboxyamide] | 6.5 nM
24 | COCCOc1ccc(NC(=O)c2cc(-c3ccc4ncnn4c3)n(-c3cccc(C)n3)n2)cc1 [Example 95, 5-([1,2,4]triazolo[1,5-α]pyridin-6-yl)-N-(4-(2-methoxyethoxy)phenyl)-1-(6-methylpyridin-2-yl)-1H-pyrazole-3-carboxyamide] | 25 nM
25 | Cc1cccc(-n2nc(C(=O)Nc3ccc(S(=O)(=O)C4CC4)cc3)cc2-c2ccc3ncsc3c2)n1 [Example 43, 5-(benzo[d]thiazol-6-yl)-N-(4-(cyclopropylsulfonyl)phenyl)-1-(6-methylpyridin-2-yl)-1H-pyrazole-3-carboxyamide] | 4.4 nM
26 | CNS(=O)(=O)c1cccc(NC(=O)c2cc(-c3ccc4ncsc4c3)n(-c3cccc(C)n3)n2)c1 [Example 47, 5-(benzo[d]thiazol-6-yl)-1-(6-methylpyridin-2-yl)-N-(3-(N-methylsulfamoyl)phenyl)-1H-pyrazole-3-carboxyamide] | 1.2 nM
27 | COCCOc1ccc(NC(=O)c2cc(-c3ccc4ncsc4c3)n(-c3cccc(C)n3)n2)cc1 [Example 4, 5-(benzo[d]thiazol-6-yl)-N-(4-(2-methoxyethoxy)phenyl)-1-(6-methylpyridin-2-yl)-1H-pyrazole-3-carboxyamide] | 4.4 nM
28 | Cc1cccc(-n2nc(C(=O)Nc3nccs3)cc2-c2ccc3ncsc3c2)n1 [Example 75, 5-(benzo[d]thiazol-6-yl)-1-(6-methylpyridin-2-yl)-N-(thiazol-2-yl)-1H-pyrazole-3-carboxyamide] | 7.4 nM
29 | COc1cc(NC(=O)c2cc(-c3ccc4ncsc4c3)n(-c3cccc(C)n3)n2)ccc1F [Example 8, 5-(benzo[d]thiazol-6-yl)-N-(4-fluoro-3-methoxyphenyl)-1-(6-methylpyridin-2-yl)-1H-pyrazole-3-carboxyamide] | 4.7 nM
